Measurements reported in PubChem BioAssay AID563 (University of Pittsburgh Molecular Library Screening Center, 2006).
The source made the active and inactive calls. The rule behind the calls is not given here.

Molecular target: Dual specificity protein phosphatase 1 (Homo sapiens) (UniProt P28562)
Assay: reproducibility of MKP-1 inhibition curves – biochemical, reproducibility testing, probe assessment, dose response (AID 563)
Conditions: recombinant MKP-1 phosphatase, fluorescence intensity

Chain of Dual specificity protein phosphatase 1 (Homo sapiens) (P28562 whole entry, looked up): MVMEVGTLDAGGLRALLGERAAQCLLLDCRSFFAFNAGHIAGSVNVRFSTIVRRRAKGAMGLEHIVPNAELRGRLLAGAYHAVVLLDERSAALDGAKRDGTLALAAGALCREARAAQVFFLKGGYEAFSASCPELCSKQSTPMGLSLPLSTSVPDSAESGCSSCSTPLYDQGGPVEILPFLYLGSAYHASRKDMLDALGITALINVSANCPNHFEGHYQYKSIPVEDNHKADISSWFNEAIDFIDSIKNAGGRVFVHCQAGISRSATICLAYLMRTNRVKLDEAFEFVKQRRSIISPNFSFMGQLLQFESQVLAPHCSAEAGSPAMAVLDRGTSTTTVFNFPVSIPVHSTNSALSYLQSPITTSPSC

IC50 | Compound
17.1 µM | Cc1ccc(C)n1-c1cccc(C(=O)O)c1
32.8 µM | CCOC(=O)c1ccc2c(c1)C1C=CCC1C(C(=O)O)N2 (stereo not drawn)
46.9 µM | Cc1cccc(N2CCN(C(=O)Cc3c(C(=O)O)[nH]c4ccc(Cl)cc34)CC2)c1C
37 µM | CCCCCNC(=O)c1ccc2c(=O)[nH]c3c(C(=O)NCC4CCCO4)sc(=S)n3c2c1 (stereo not drawn)
49.8 µM | Cc1nc2c(C(=O)NCCC3=CCCCC3)c[nH]n2c(=O)c1Cl
49.7 µM | Cc1ccc(-c2csc(NC(=O)c3ccno3)n2)cc1
22.8 µM | CC(C)Sc1nc2sc3c(c2c2nnc(SCC(=O)NCc4ccco4)n12)CCCC3
> 50 µM (inactive) | O=C1C(C2=C(O)c3ccccc3C2=O)=Nc2ccccc21
